# Laboratory results taken from ChEMBL document CHEMBL1126384, “Synthesis of reversed hydroxamic acids of indomethacin: dual inhibitors of cyclooxygenase and 5-lipoxygenase” (Bioorg Med Chem Lett, 1992).
# Columns and labels:
# [1] = molecular target: T1, Polyunsaturated fatty acid 5-lipoxygenase (Rattus norvegicus, UniProt P12527); experiment: Tested for inhibition of 5-Lipoxygenase (ARBL) in calcium-stimulated rat basophilic leukemia cells(RBL-1); format: cell-based
# T1 sequence (P12527 whole entry): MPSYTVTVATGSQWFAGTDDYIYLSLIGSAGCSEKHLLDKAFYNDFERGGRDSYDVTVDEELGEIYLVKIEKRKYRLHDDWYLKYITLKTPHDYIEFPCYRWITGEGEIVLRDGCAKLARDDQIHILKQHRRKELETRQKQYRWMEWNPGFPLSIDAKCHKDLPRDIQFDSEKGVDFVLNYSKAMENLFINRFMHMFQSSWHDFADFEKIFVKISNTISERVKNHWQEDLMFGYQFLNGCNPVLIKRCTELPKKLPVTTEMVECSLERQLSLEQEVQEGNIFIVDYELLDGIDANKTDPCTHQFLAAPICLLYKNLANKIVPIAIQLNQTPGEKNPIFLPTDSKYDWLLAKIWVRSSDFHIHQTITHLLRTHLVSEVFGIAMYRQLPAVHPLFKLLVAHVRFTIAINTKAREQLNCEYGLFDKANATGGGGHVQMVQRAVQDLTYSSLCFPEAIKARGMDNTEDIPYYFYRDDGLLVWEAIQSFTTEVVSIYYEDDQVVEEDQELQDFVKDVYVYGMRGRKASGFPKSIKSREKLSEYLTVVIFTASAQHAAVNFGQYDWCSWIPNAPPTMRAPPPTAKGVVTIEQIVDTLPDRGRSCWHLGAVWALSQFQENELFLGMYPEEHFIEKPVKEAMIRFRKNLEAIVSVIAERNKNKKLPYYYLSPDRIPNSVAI
# Cyclooxygenase = molecular target: T2, Cyclooxygenase (Rattus norvegicus, UniProt P35355+Q63921); conditions: rbl-1
# T2 sequence (P35355 whole entry): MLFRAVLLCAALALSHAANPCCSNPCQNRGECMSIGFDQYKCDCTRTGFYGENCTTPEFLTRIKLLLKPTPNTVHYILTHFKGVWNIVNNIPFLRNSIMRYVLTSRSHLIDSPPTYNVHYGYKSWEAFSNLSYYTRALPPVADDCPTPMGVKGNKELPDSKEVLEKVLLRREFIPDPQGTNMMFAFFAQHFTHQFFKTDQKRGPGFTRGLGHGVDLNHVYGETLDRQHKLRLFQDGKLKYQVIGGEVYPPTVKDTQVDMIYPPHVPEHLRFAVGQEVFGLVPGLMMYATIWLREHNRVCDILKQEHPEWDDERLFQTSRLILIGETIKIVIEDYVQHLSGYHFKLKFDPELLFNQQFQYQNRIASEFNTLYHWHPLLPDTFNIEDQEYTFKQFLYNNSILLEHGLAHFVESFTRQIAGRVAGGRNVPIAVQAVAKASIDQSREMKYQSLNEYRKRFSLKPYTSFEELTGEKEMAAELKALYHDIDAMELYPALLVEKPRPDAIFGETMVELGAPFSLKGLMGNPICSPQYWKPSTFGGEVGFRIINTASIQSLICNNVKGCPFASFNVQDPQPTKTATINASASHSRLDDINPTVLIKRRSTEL
# T2 sequence (Q63921 whole entry): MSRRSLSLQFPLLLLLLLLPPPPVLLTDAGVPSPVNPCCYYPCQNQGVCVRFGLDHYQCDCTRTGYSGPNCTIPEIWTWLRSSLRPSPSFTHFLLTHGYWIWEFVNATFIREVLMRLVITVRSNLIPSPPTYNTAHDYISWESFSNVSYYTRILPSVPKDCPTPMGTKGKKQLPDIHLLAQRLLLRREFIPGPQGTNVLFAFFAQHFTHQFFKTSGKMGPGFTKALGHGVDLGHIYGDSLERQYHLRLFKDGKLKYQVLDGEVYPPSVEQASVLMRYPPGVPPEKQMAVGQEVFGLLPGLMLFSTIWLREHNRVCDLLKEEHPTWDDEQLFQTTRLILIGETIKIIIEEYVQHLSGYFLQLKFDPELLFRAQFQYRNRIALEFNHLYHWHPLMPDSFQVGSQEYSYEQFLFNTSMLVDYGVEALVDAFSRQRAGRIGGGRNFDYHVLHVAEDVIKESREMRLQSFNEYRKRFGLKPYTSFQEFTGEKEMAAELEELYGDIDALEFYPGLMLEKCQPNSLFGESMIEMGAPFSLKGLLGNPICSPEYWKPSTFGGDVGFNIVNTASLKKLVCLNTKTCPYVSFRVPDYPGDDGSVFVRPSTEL
# Description: Tested for inhibition of cyclooxygenase (ARBC) in calcium-stimulated rat basophilic leukemia cells(RBL-1)
Compound,IC50 [1],IC50 (Cyclooxygenase)
COc1ccc2c(c1)c(C(C)N(O)C(C)=O)c(C)n2C(=O)c1ccc(Cl)cc1 (configuration not stated),0.83 µM,2.4 µM
CNC(=S)N(O)C(C)c1c(C)n(C(=O)c2ccc(Cl)cc2)c2ccc(OC)cc12 (configuration not stated),0.57 µM,7 µM
CNC(=S)N(O)Cc1c(C)n(C(=O)c2ccc(Cl)cc2)c2ccc(OC)cc12,,7.1 µM
COc1ccc2c(c1)c(C(C)N(O)C(N)=O)c(C)n2C(=O)c1ccc(Cl)cc1 (configuration not stated),1.4 µM,0.89 µM

# Now from value to compound:
IC50 [1],IC50 (Cyclooxygenase),Compound
1.4 µM,15 µM,COc1ccc2c(c1)c(CN(O)C(C)=O)c(C)n2C(=O)c1ccc(Cl)cc1
0.34 µM,> 20 µM,COc1ccc2c(c1)c(CN(O)C(N)=O)c(C)n2C(=O)c1ccc(Cl)cc1
> 100 µM,,COc1ccc2c(c1)c(CC(=O)O)c(C)n2C(=O)c1ccc(Cl)cc1 [INDOMETHACIN]
